For the assay, the system named is M2-like macrophages. Nature of the assay: IL-8 secretion by monocyte-derived macrophages treated with mGluR8 agonist (LEGENDplex bead-based immunoassay). The class given is cell-based, human. As to conditions: supernatant; for Fold change of IL-8 (Normalized to M2-like Macs + LPS with no compound treatment): human monocyte-derived macrophages, LEGENDplex. Here is the method:
CD14+ monocytes were isolated from human PBMCs using negative magnetic bead selection (Stemcell Technologies) on day 0. Cells were cultured with M-CSF to differentiate monocytes to macrophages. On day 6, cells were treated with L-AP4 (selective group III metabotropic glutamate receptor agonist) (Sigma-Aldrich), at concentrations 1 μM and 10 μM overnight. Supernatant was collected and LEGENDplex™ bead-based immunoassays (Biolegend) were performed to detect for changes in cytokines secreted.
Secretion of the inflammatory cytokine, IL-8, was decreased with the addition of the mGluR8 agonist in M2-like macrophages, consistent across multiple donors, as shown in Table 17 below.

With `NC(CCP(=O)(O)O)C(=O)O` [L-AP4], the “Fold change of IL-8 (Normalized to M2-like Macs + LPS with no compound treatment)” value was 0.646 (M2-like Macs + L-AP4 1 μM overnight) and 0.866 (M2-like Macs + L-AP4 10 μM overnight). For the same molecule, for the setting “macrophages differentiated with M-CSF from CD14+ monocytes of human PBMCs, L-AP4 at 1 μM and 10 μM overnight, multiple donors”, the “Secretion of the inflammatory cytokine IL-8” value is on record as “decreased”.

The record behind these values is patent US10683352B1, “Methods for treating cancer using GRM8 inhibitors” (Flagship Pioneering Innovations V, Inc., priority 2018, dated 2020).
